Here are results for 18 compounds from patent publication US20150329558A1, “FUSED HETEROCYCLIC COMPOUNDS AS ION CHANNEL MODULATORS” (Gilead Sciences, Inc., priority 2011, published 2015).

“And” between values parts separate entries of the source, which are not always exact repeats. Equal entries are not always repeated. Where two headings read alike, the source gives them in different places. Some results are limits rather than exact numbers.

The target of series [1] is wild-type human cardiac sodium channel, hNav1.5 (late INa) (Homo sapiens, UniProt Q14524). Description: Late INa screening assay (QPatch whole cell patch clamp). It counts as cell-based. Summed up: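 Compounds tested at 1 μM final in extracellular solution against tefluthrin (10 μM)-enhanced late current. Automated patch clamp (23-25° C) on HEK293 expressing alpha subunit alone: −120 mV holding, 250 ms depolarization to −20 mV every 10 s. Read-out is percent inhibition of mean current over 225–250 ms.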
(Patch clamp records ionic current or voltage across a cell membrane.)

A further series addresses hERG potassium channel (Homo sapiens, UniProt Q12809). The series can be described thus: hERG screening assay (PatchXpress, CHO cells). In kind it is cell-based. The settings on record: for HERG*: % inhibition at 1 μM. Here is the method:
Compounds were also tested for their effect to block the hERG K^+ channel.
Compounds were screened to test their activity in blocking the hERG potassium channel at AVIVA Biosciences (San Deigo, Calif., USA). The hERG channel is heterologously expressed in a CHO (Chinese Hamster Ovary) cell line. Cells were maintained with standard tissue culture procedures and stable channel expression was maintained with 500 μg/mL G418 in the culture medium. Cells were harvested for testing on the PatchXpress 7000A automated patch clamp with Accumax (Innovative Cell Technologies, San Diego, Calif.) to isolate single cells.
The following solutions were used for electrophysiological recordings. The external solution contained: 2 mM CaCl2; 2 mM MgCl2; 4 mM KCl; 150 mM NaCl; 10 mM Glucose; 10 mM HEPES (pH 7.4 with 1M NaOH; osmolarity, ˜310 mOsm). The internal solution contained: 140 mM KCl, 10 mM MgCl2, 6 mM EGTA, 5 mM HEPES, 5 mM ATP (pH adjusted to 7.25 with KOH; osmolarity, ˜295 mOsm).
hERG channels were activated when the voltage was first stepped to −50 mV for 300 ms from the −80 mV holding potential and then stepped to +20 mV for 5 seconds. At +20 mV the channels open and then largely inactivate, so the currents are relatively small. Upon returning to −50 mV from +20 mV, hERG currents transiently become much larger as inactivation is rapidly removed and then the channel closes. The first step to −50 mV for 300 ms was used as a baseline for measuring the peak amplitude during the step to −50 mV after channel activation. The peak tail current at −50 mV was measured both under control conditions and after addition of compound, each cell serving as its own control.
All compounds were prepared as 10 mM DMSO stocks in glass vials. Stock solutions were mixed by vigorous vortexing and sonication for about 2 minutes at room temperature. For testing, compounds were diluted in glass vials using an intermediate dilution step in pure DMSO and then further diluted to working concentrations in external solution. Dilutions were prepared no longer than 20 minutes before use.
For the electrophysiological recordings, after achieving the whole-cell configuration, cells were monitored for 90 seconds to assess stability and washed with external solution for 66 seconds. The voltage protocol described above was then applied to the cells every 12 seconds and throughout the whole procedure. Only cells with stable recording parameters and meeting specified health criteria were allowed to enter the compound addition procedure.
External solution containing 0.1% DMSO (vehicle) was applied to the cells first to establish the control peak current amplitude. After allowing the current to stabilize for 3 to 5 minutes, 1 μM and then 10 μM test compounds were applied. Each compound concentration was added 4 times and cells were kept in test solution until the effect of the compound reached steady state or for a maximum of 12 minutes. After addition of test compound, a positive control (1 μM Cisapride) was added and must block >95% of the current for the experiment to be considered valid. Washout in the external solution compartment was performed until the recovery of the current reached steady state.
Background: Block of hERG is tested as a sign of cardiac risk.

Series [2] is described as follows: Microsomal stability assay, rat. In kind it is in vitro ADME. The settings on record: metabolic stability, rat liver microsomes 0.5 mg/mL, substrate 3 uM. Summed up:
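Liver microsomes at 0.5 mg/mL protein in 100 mM KPO4 buffer, incubated with 3 uM compound and NADPH-regenerating system, run in duplicate. Samples taken at 2, 12, 25, 45 and 65 min and quenched in MeOH/ACN/water before analysis.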
In general terms: Liver microsomes are vesicles of endoplasmic reticulum, rich in cytochrome P450 enzymes.

The mark [3] stands for this setting: % inhibition at 1 μM, read-out: NAv1.5*-LATE-.
[4] abbreviates: percent block of late INa, compound at 1 μM, 10 μM Tefluthrin, HEK293 hNav1.5, read-out: Late INa 1 μM.

Chain of hERG potassium channel (Q12809 whole entry): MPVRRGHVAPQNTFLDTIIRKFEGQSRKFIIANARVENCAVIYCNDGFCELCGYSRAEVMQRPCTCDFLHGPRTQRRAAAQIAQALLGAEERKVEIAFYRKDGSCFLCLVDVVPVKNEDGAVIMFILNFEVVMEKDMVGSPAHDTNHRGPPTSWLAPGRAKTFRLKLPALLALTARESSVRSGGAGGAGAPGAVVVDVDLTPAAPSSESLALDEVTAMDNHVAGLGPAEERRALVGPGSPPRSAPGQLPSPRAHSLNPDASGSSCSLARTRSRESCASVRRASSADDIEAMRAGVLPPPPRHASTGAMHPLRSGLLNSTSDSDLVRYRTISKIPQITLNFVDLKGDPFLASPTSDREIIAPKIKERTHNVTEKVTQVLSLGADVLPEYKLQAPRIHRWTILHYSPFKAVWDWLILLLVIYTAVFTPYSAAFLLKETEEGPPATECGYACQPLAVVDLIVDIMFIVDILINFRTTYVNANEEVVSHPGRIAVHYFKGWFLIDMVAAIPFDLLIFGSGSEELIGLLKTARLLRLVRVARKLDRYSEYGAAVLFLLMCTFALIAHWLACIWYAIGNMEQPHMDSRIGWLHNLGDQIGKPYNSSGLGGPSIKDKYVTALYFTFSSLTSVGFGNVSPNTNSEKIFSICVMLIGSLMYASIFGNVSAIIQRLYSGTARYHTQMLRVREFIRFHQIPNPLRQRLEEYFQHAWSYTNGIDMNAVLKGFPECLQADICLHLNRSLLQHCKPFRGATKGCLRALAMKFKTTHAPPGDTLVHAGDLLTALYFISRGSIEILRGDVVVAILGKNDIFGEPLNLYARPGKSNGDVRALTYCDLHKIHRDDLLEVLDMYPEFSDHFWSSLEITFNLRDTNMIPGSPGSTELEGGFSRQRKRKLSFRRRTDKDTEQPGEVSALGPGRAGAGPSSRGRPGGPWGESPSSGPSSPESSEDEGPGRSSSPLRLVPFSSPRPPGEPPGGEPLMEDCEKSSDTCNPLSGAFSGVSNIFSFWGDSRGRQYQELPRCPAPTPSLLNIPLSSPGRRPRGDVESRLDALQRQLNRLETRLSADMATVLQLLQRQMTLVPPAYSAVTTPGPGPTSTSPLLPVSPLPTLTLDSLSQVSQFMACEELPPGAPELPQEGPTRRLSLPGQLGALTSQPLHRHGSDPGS
Chain of wild-type human cardiac sodium channel, hNav1.5 (late INa) (Q14524 whole entry): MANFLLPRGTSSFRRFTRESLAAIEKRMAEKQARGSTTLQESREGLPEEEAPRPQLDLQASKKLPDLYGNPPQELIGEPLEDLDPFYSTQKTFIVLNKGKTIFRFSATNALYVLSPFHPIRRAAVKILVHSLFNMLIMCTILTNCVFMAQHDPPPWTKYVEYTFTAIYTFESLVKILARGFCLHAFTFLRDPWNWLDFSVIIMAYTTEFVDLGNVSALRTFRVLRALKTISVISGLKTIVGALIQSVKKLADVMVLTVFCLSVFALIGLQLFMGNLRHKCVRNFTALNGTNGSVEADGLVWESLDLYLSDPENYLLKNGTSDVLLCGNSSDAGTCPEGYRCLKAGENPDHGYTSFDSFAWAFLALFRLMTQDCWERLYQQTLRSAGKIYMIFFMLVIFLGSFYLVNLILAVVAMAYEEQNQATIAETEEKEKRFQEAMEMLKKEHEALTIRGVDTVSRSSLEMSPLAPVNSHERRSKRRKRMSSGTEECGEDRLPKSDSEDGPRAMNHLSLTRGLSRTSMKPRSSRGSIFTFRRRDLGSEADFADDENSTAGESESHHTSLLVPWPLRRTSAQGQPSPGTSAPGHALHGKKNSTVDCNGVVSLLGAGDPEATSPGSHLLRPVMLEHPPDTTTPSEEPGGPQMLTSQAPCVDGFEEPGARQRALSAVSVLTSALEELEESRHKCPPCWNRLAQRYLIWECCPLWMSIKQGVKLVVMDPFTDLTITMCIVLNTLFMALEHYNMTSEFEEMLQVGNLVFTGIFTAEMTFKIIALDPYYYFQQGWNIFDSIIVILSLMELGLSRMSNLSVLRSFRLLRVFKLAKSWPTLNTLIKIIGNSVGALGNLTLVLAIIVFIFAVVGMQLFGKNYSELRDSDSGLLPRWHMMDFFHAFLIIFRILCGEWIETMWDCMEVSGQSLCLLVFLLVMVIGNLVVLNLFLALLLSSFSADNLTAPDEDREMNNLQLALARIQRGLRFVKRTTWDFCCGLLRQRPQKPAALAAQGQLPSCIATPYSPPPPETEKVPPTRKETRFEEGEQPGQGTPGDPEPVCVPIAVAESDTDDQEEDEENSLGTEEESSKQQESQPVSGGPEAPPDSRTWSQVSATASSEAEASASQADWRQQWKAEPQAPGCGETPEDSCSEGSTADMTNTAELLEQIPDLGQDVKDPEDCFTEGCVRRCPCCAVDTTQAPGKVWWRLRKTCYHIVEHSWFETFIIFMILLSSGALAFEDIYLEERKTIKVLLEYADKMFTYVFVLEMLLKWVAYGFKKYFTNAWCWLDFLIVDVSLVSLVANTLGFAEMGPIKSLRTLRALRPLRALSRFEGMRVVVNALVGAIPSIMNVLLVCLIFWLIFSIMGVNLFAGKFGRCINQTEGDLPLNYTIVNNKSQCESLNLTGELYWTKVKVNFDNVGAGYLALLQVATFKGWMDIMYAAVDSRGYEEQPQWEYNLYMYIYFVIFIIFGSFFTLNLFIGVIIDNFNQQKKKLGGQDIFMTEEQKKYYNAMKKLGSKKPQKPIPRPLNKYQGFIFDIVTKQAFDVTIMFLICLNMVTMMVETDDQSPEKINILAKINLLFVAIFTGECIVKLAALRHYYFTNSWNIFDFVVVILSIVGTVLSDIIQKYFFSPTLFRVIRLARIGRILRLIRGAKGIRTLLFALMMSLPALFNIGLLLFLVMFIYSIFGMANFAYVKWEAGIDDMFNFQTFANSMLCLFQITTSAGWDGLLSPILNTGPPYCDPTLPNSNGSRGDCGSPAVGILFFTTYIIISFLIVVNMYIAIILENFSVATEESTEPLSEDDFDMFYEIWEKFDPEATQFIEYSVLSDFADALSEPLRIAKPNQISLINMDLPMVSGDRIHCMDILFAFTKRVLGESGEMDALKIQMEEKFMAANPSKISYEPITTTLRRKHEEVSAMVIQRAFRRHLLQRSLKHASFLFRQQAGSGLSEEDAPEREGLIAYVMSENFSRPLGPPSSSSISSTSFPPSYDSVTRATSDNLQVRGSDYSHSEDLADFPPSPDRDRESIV

As for `Cc1noc(Cn2nnc3ccc(-c4ccc(OC(F)(F)F)cc4)cc3c2=O)n1` [II-3, 3-((3-methyl-1,2,4-oxadiazol-5-yl)methyl)-6-(4-(trifluoromethoxy)phenyl)benzo[d][1,2,3]triazin-4(3H)-one], the inhibition at 1 µM in series [1] (setting [3]) and in series [1] (setting [4]) was 53% each time. For the same compound, the “HERG*” value on hERG potassium channel is 15.5% and 16%. The compound also showed an inhibition at 10 µM at hERG potassium channel (human, CHO cells that heterologously express the hERG channel, pH 7.4, at 10 μM) of 24.5%. The compound further yielded an MS Rat THalf in series [2] of 249 min.
Regarding `O=c1c2cc(-c3ccc(OC(F)(F)F)cc3)ccc2nnn1Cc1noc(C2CC2)n1` [II-14, 3-((5-cyclopropyl-1,2,4-oxadiazol-3-yl)methyl)-6-(4-(trifluoromethoxy)phenyl)benzo[d][1,2,3]triazin-4(3H)-one], the inhibition at 1 µM in series [1] (setting [3]) and in series [1] (setting [4]) was 68% in each case. Further, the “HERG*” value on hERG potassium channel is given as <10%. The MS Rat THalf in series [2] was found to be 375 min.
Take `O=c1c2cc(-c3ccc(OC(F)(F)F)cc3)ccc2nnn1CCc1ccncn1` [II-17, 3-(2-(pyrimidin-4-yl)ethyl)-6-(4-(trifluoromethoxy)phenyl)benzo[d][1,2,3]triazin-4(3H)-one]: the inhibition at 1 µM in series [1] (setting [3]) and in series [1] (setting [4]) was 61% in each case. For the same compound, on hERG potassium channel, the “HERG*” value came out at 42%. Further, the MS Rat THalf in series [2] was found to be 24 min.
As for `O=c1c2cc(-c3ccc(OC(F)(F)F)cc3)ccc2nnn1CCc1ncccn1` [II-18, 3-(2-(pyrimidin-2-yl)ethyl)-6-(4-(trifluoromethoxy)phenyl)benzo[d][1,2,3]triazin-4(3H)-one], the inhibition at 1 µM in series [1] (setting [3]) and in series [1] (setting [4]) was 66% each time. The “HERG*” value on hERG potassium channel is reported as 30%. The same compound registered an MS Rat THalf in series [2] of 49 min.
Take `O=c1c2cc(-c3ccc(OC(F)(F)F)cc3)ccc2nnn1CCOc1ncccn1` [II-32, 3-(2-(pyrimidin-2-yloxy)ethyl)-6-(4-(trifluoromethoxy)phenyl)benzo[d][1,2,3]triazin-4(3H)-one]: the inhibition at 1 µM in series [1] (setting [3]) and in series [1] (setting [4]) was 64% throughout. Besides, the “HERG*” value at hERG potassium channel is on record as 45%. Further, the MS Rat THalf in series [2] came to 237 min.
On to `N#Cc1ccnc(OCCn2nnc3ccc(-c4ccc(OC(F)(F)F)cc4)cc3c2=O)n1` [II-36, 2-(2-(4-oxo-6-(4-(trifluoromethoxy)phenyl)benzo[d][1,2,3]triazin-3(4H)-yl)ethoxy)pyrimidine-4-carbonitrile], for which the inhibition at 1 µM in series [1] (setting [3]) and in series [1] (setting [4]) was 43% throughout. In addition, the “HERG*” value on hERG potassium channel amounted to 21%. Besides, the MS Rat THalf in series [2] came out at 108 min.
Regarding `O=c1c2cc(-c3ccc(OC(F)(F)F)cc3)ccc2nnn1C1CCNCC1` [II-38, 3-(piperidin-4-yl)-6-(4-(trifluoromethoxy)phenyl)benzo[d][1,2,3]triazin-4(3H)-one], the inhibition at 1 µM in series [1] (setting [3]) and in series [1] (setting [4]) was 33% in each case. The “HERG*” value on hERG potassium channel worked out at 58%. For the same compound, the MS Rat THalf in series [2] is 298 min.
Take `O=c1c2cc(-c3ccc(OC(F)(F)F)cc3)ccc2nnn1CC1(CN2CCOCC2)CC1` [II-40, 3-((1-(morpholinomethyl)cyclopropyl)methyl)-6-(4-(trifluoromethoxy)phenyl)benzo[d][1,2,3]triazin-4(3H)-one]: the inhibition at 1 µM in series [1] (setting [3]) and in series [1] (setting [4]) was 48% throughout. Moreover, on hERG potassium channel, the “HERG*” value is 81%. In addition, the MS Rat THalf in series [2] is 2 min.
As to `O=c1c2cc(-c3ccc(OC(F)(F)F)cc3)ccc2nnn1Cc1noc(-c2ccccn2)n1` [II-54, 3-((5-(pyridin-2-yl)-1,2,4-oxadiazol-3-yl)methyl)-6-(4-(trifluoromethoxy)phenyl)benzo[d][1,2,3]triazin-4(3H)-one], the inhibition at 1 µM in series [1] (setting [3]) and in series [1] (setting [4]) was 52% in each case. At hERG potassium channel, the “HERG*” value is 23%. Besides, the MS Rat THalf in series [2] was determined as 176 min.
On to `O=c1c2cc(-c3ccc(OC(F)(F)F)cc3)ccc2nnn1Cc1nnc(C2CC2)o1` [II-67, 3-((5-cyclopropyl-1,3,4-oxadiazol-2-yl)methyl)-6-(4-(trifluoromethoxy)phenyl)benzo[d][1,2,3]triazin-4(3H)-one], for which the inhibition at 1 µM in series [1] (setting [3]) and in series [1] (setting [4]) was 47% in each case. Further, on hERG potassium channel, the “HERG*” value is reported as 41%. In addition, in series [2], the MS Rat THalf was > 395 min.
In the case of `Cc1ncc(Cn2nnc3ccc(-c4ccc(OC(F)(F)F)cc4)cc3c2=O)o1` [II-95, 3-((2-methyloxazol-5-yl)methyl)-6-(4-(trifluoromethoxy)phenyl)benzo[d][1,2,3]triazin-4(3H)-one], the inhibition at 1 µM in series [1] (setting [3]) and in series [1] (setting [4]) was 36% throughout. Besides, on hERG potassium channel, the “HERG*” value was <10%. For the same compound, the MS Rat THalf in series [2] came to 121 min.
As for `O=c1c2cc(-c3ccc(OC(F)(F)F)cc3)ccc2cnn1Cc1ncccn1` [III-5, 2-(pyrimidin-2-ylmethyl)-7-(4-(trifluoromethoxy)phenyl)phthalazin-1(2H)-one], the inhibition at 1 µM in series [1] (setting [3]) and in series [1] (setting [4]) was 44% throughout. Further, the “HERG*” value on hERG potassium channel was determined as 13%. Further, the MS Rat THalf in series [2] came to 56 min.
Consider `O=c1c2cc(-c3ccc(OC(F)(F)F)cc3)ccc2cnn1CCn1cccn1` [III-9, 2-(2-(1H-pyrazol-1-yl)ethyl)-7-(4-(trifluoromethoxy)phenyl)phthalazin-1(2H)-one], for which the inhibition at 1 µM in series [1] (setting [3]) and in series [1] (setting [4]) was 57% in each case. The “HERG*” value on hERG potassium channel is 37%. Also, the MS Rat THalf in series [2] amounted to 81 min.
`COc1cc(OC)nc(Cn2ncc3ccc(-c4ccc(OC(F)(F)F)cc4)cc3c2=O)n1` [III-19, 2-((4,6-dimethoxypyrimidin-2-yl)methyl)-7-(4-(trifluoromethoxy)phenyl)phthalazin-1 (2H)-one]: the inhibition at 1 µM in series [1] (setting [3]) and in series [1] (setting [4]) was 56% each time. Also, the “HERG*” value at hERG potassium channel is recorded as 23%. The same compound yielded an MS Rat THalf in series [2] of 72 min.
As to `O=c1c2cc(-c3ccc(OC(F)(F)F)cc3)ccc2cnn1CCOc1ncccn1` [III-28, 2-(2-(pyrimidin-2-yloxy)ethyl)-7-(4-(trifluoromethoxy)phenyl)phthalazin-1 (2H)-one], the inhibition at 1 µM in series [1] (setting [3]) and in series [1] (setting [4]) was 75% throughout. The “HERG*” value at hERG potassium channel turned out to be 51%. For the same compound, the MS Rat THalf in series [2] was found to be 103 min.
On to `Cc1noc(Cn2cnc3ccc(-c4ccc(OC(F)(F)F)cc4)cc3c2=O)n1` [IV-6, 3-((3-methyl-1,2,4-oxadiazol-5-yl)methyl)-6-(4-(trifluoromethoxy)phenyl)quinazolin-4(3H)-one], for which the inhibition at 1 µM in series [1] (setting [3]) and in series [1] (setting [4]) was 49% each time. Besides, on hERG potassium channel, the “HERG*” value is <10%. The MS Rat THalf in series [2] is 190 min.
With `O=C1c2cc(-c3ccc(C(F)(F)F)cc3)ccc2OCN1Cc1ccccn1` [VIII-1, 3-(pyridin-2-ylmethyl)-6-(4-(trifluoromethyl)phenyl)-2H-benzo[e][1,3]oxazin-4(3H)-one], the inhibition at 1 µM in series [1] (setting [3]) and in series [1] (setting [4]) was 52% each time. The compound further came in with an MS Rat THalf in series [2] of 211 min.
As for `O=C1c2cc(-c3ccc(OC(F)(F)F)cc3)ccc2OCN1Cc1ncccn1` [VIII-20, 3-(pyrimidin-2-ylmethyl)-6-(4-(trifluoromethoxy)phenyl)-2H-benzo[e][1,3]oxazin-4(3H)-one], the inhibition at 1 µM in series [1] (setting [3]) and in series [1] (setting [4]) was 62% throughout. In addition, the “HERG*” value at hERG potassium channel is given as <10%.
